Source: patent US11491120B2, “Pharmacological prophylactics against stress-induced affective disorders in females” (The Trustees of Columbia University in the City of New York, priority 2017, dated 2022)
Entries after “also recorded” stand apart in the source; their conditions may differ.

Assays:
[1] = test system: female 129S6/SvEv mice; test: Elevated plus maze (EPM); format: in vivo, mouse; conditions: 10 mg/kg, 1 week prophylactic drug, learned helplessness stress
Method: The EPM was administered as previously described (58), with the exception that videos were scored using ANY-maze behavioral tracking software (Stoelting Co., Wood Dale, Ill.).
We have previously shown that prophylactic (R,S)-ketamine attenuates helpless behavior in male mice (18). To validate these findings in females, female mice were administered saline, (R,S)-ketamine, or (2R,6R)-HNK one week prior to LH training (FIG. 4A). Two weeks later, mice were tested for escape latency and for depressive- and anxiety-like behaviors in the FST and elevated plus maze (EPM). CFC was again administered following these behavioral assays.

[2] = test system: female 129S6/SvEv mice; test: Forced swim test (FST), immobility time, after stress; conditions: for p, Sal vs. drug, Fisher's PLSD: Immobility Time (min 1-6), Forced Swim Test Day 2 / p, Sal vs. drug, Fisher's PLSD: Immobility Time Average (min 3-6), Forced Swim Test Day 2: 3 day prophylactic drug
[3] = 2.5 mg/kg, 1 week prophylactic drug
[4] = 10 mg/kg, 1 week prophylactic drug
[5] = 10 mg/kg, 1 week prophylactic drug, learned helplessness stress
[6] = 30 mg/kg, 1 week prophylactic drug
[7] = Forced Swim Test Day 1, Dunnett test Sal vs. drug (2.5), 1 week prophylactic drug
[8] = Forced Swim Test Day 1, Dunnett test Sal vs. drug (10), 1 week prophylactic drug
[9] = Forced Swim Test Day 1, Dunnett test Sal vs. drug (30), 1 week prophylactic drug

CNC1(c2ccccc2Cl)CCCCC1=O (racemic) [(R,S)-ketamine, (RS)-2-(2-chlorophenyl)-2-(methylamino)cyclohexanone]
* (significance), Sal vs. drug, Fisher's PLSD: Time in Closed Arms Average (min 1-6), Elevated Plus Maze [1]: * (* p<0.05)
* (significance), Sal vs. drug, Fisher's PLSD: Time in Open Arms Average (min 1-6), Elevated Plus Maze [1]: * (* p<0.05)
P, Sal vs. drug, Fisher's PLSD: Time in Closed Arms Average (min 1-6), Elevated Plus Maze [1]: 0.0186
P, Sal vs. drug, Fisher's PLSD: Time in Open Arms Average (min 1-6), Elevated Plus Maze [1]: 0.0147
p, Sal vs. drug, Dunnett test: Immobility Time (min 1), Forced Swim Test Day 2 [2, 3]: 0.5849
p, Sal vs. drug, Dunnett test: Immobility Time (min 1-6), Forced Swim Test Day 2 [2, 3]: 0.8314
p, Sal vs. drug, Dunnett test: Immobility Time (min 2), Forced Swim Test Day 2 [2, 3]: 0.9770
p, Sal vs. drug, Dunnett test: Immobility Time (min 4), Forced Swim Test Day 2 [2, 3]: 0.9997
p, Sal vs. drug, Dunnett test: Immobility Time (min 5), Forced Swim Test Day 2 [2, 3]: 0.9999
p, Sal vs. drug, Dunnett test: Immobility Time (min 6), Forced Swim Test Day 2 [2, 3]: 0.9686
p, Sal vs. drug, Dunnett test: Immobility Time Average (min 3-6), Forced Swim Test Day 2 [2, 3]: 0.9990
p, Sal vs. drug, Fisher's PLSD: Immobility Time (min 1-6), Forced Swim Test Day 2 ([2]; 2.5 mg/kg): 0.1441
p, Sal vs. drug, Fisher's PLSD: Immobility Time Average (min 3-6), Forced Swim Test Day 2 ([2]; 2.5 mg/kg): 0.3992
* (significance), Sal vs. drug, Dunnett test: Immobility Time (min 1-6), Forced Swim Test Day 2 [2, 4]: ** (** p<0.01)
* (significance), Sal vs. drug, Dunnett test: Immobility Time (min 4), Forced Swim Test Day 2 [2, 4]: * (* p<0.05)
* (significance), Sal vs. drug, Dunnett test: Immobility Time (min 5), Forced Swim Test Day 2 [2, 4]: * (* p<0.05)
* (significance), Sal vs. drug, Dunnett test: Immobility Time Average (min 3-6), Forced Swim Test Day 2 [2, 4]: ** (** p<0.01)
p, Sal vs. drug, Dunnett test: Immobility Time (min 1), Forced Swim Test Day 2 [2, 4]: 0.0825
p, Sal vs. drug, Dunnett test: Immobility Time (min 1-6), Forced Swim Test Day 2 [2, 4]: 0.0006
p, Sal vs. drug, Dunnett test: Immobility Time (min 2), Forced Swim Test Day 2 [2, 4]: 0.0675
p, Sal vs. drug, Dunnett test: Immobility Time (min 4), Forced Swim Test Day 2 [2, 4]: 0.0144
p, Sal vs. drug, Dunnett test: Immobility Time (min 5), Forced Swim Test Day 2 [2, 4]: 0.0149
p, Sal vs. drug, Dunnett test: Immobility Time (min 6), Forced Swim Test Day 2 [2, 4]: 0.3306
p, Sal vs. drug, Dunnett test: Immobility Time Average (min 3-6), Forced Swim Test Day 2 [2, 4]: 0.0062
* (significance), Sal vs. drug, Fisher's PLSD: Immobility Time Average (min 3-6), Forced Swim Test Day 2 [2, 5]: *** (*** p<0.0001)
P, Sal vs. drug, Fisher's PLSD: Immobility Time Average (min 3-6), Forced Swim Test Day 2 [2, 5]: <0.0001
p, Sal vs. drug, Fisher's PLSD: Immobility Time (min 1-6), Forced Swim Test Day 2 ([2]; 10 mg/kg): 0.1807
p, Sal vs. drug, Fisher's PLSD: Immobility Time Average (min 3-6), Forced Swim Test Day 2 ([2]; 10 mg/kg): 0.4394
Immobility on FST Day 2, first minute, vs saline ([2]; 10 mg/kg, injection one hour prior to FST Day 1, female mice): significantly less immobile compared to saline mice; also recorded: significantly less immobile than saline mice during the first minute
p, Sal vs. drug, Dunnett test: Immobility Time (min 1), Forced Swim Test Day 2 [2, 6]: 0.9167
p, Sal vs. drug, Dunnett test: Immobility Time (min 1-6), Forced Swim Test Day 2 [2, 6]: 0.1741
p, Sal vs. drug, Dunnett test: Immobility Time (min 2), Forced Swim Test Day 2 [2, 6]: 0.7390
p, Sal vs. drug, Dunnett test: Immobility Time (min 4), Forced Swim Test Day 2 [2, 6]: 0.4082
p, Sal vs. drug, Dunnett test: Immobility Time (min 5), Forced Swim Test Day 2 [2, 6]: 0.3770
p, Sal vs. drug, Dunnett test: Immobility Time (min 6), Forced Swim Test Day 2 [2, 6]: 0.8643
p, Sal vs. drug, Dunnett test: Immobility Time Average (min 3-6), Forced Swim Test Day 2 [2, 6]: 0.5537
p, Sal vs. drug, Fisher's PLSD: Immobility Time (min 1-6), Forced Swim Test Day 2 ([2]; 30 mg/kg): 0.0750
p, Sal vs. drug, Fisher's PLSD: Immobility Time Average (min 3-6), Forced Swim Test Day 2 ([2]; 30 mg/kg): 0.3050
p, Immobility Time (min 1) [2, 7]: 0.9806
p, Immobility Time (min 1-6) [2, 7]: 0.1415
p, Immobility Time (min 3) [2, 7]: 0.9989
p, Immobility Time (min 4) [2, 7]: 0.9991
p, Immobility Time (min 5) [2, 7]: 0.9999
p, Immobility Time (min 6) [2, 7]: 0.9999
p, Immobility Time Average (min 3-6) [2, 7]: 0.9994
* (significance), Immobility Time (min 3) [2, 8]: * (* p<0.05)
p, Immobility Time (min 1) [2, 8]: 0.9957
p, Immobility Time (min 1-6) [2, 8]: 0.2256
p, Immobility Time (min 3) [2, 8]: 0.0470
p, Immobility Time (min 4) [2, 8]: 0.3636
p, Immobility Time (min 5) [2, 8]: 0.2596
p, Immobility Time (min 6) [2, 8]: 0.1488
p, Immobility Time Average (min 3-6) [2, 8]: 0.0733
p, Immobility Time (min 1) [2, 9]: 0.9955
p, Immobility Time (min 1-6) [2, 9]: 0.3435
p, Immobility Time (min 3) [2, 9]: 0.1617
p, Immobility Time (min 4) [2, 9]: 0.9555
p, Immobility Time (min 5) [2, 9]: 0.8239
p, Immobility Time (min 6) [2, 9]: 0.8254
p, Immobility Time Average (min 3-6) [2, 9]: 0.5081
